Assay results reported in ChEMBL document CHEMBL5143709, “Synthesis and characterization of an orally bioavailable small molecule agonist of the apelin receptor” (Bioorg Med Chem, 2022).
Converted amounts (≈) assume the structure as drawn.

How the values were obtained:
Apelin receptor [1] = molecular target: T1, Apelin receptor (Homo sapiens, UniProt P35414); experiment: Agonist activity at human APJ receptor expressed in CHO cells co-expressing Galphaq16 assessed as stimulation of Ca2+ mobilization measured at 1 sec interval for 90 sec by fluorescent Calcium 5-dye based FLIPR-calcium mobilization assay; assay type: functional, cell-based
T1 sequence (P35414 whole entry): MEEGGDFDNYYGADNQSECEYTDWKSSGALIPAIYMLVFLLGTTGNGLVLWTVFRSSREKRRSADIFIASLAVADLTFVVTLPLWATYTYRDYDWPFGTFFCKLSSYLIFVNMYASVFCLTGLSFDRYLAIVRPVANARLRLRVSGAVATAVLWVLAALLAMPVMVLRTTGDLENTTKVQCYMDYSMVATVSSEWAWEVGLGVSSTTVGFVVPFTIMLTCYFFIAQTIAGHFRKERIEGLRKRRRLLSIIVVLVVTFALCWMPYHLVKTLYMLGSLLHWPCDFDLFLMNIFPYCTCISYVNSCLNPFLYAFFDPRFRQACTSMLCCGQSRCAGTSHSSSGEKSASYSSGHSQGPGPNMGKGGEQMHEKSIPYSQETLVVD

Apelin receptor [2] = molecular target: T1, Apelin receptor; experiment: Agonist activity at human APJ receptor expressed in CHO cells assessed as inhibition of forskolin-induced cAMP accumulation measured after 30 mins by TR-FRET based LANCE cAMP assay; assay type: functional, cell-based
[3] = Metabolic stability in Sprague-Dawley rat liver microsomes assessed as parent compound remaining at 1 uM measured after 30 mins in the presence of NADPH by LC-MS analysis
[4] = Apparent permeability from basolateral to apical side in human Caco-2 cells by LC-MS/MS analysis; assay type: ADME, cell-based
[5] = Efflux ratio of apparent permeability from basolateral to apical side over apical to basolateral side in human Caco-2 cells by LC-MS/MS analysis; assay type: ADME, cell-based
[6] = Apparent permeability from apical to basolateral side in human Caco-2 cells by LC-MS/MS analysis; assay type: ADME, cell-based
Apelin receptor [7] = molecular target: T1, Apelin receptor; experiment: Agonist activity at human AGTRL1 expressed in CHO-K1 cells assessed as induction of beta-arrestin 2 recruitment incubated for 90 mins by PathHunter assay; assay type: functional, cell-based
[8] = molecular target: T2, Apelin receptor (Homo sapiens) (UniProt P35414); experiment: Agonist activity at human AGTRL1 expressed in CHO-K1 cells assessed as induction of beta-arrestin 2 recruitment by measuring maximal efficacy incubated for 90 mins by PathHunter assay relative to control; assay type: functional, cell-based; conditions: filed as agonist
T2 sequence (whole entry): T1 sequence (P35414 whole entry)

[9] = Solubility of the compound at pH 7.4; assay type: physicochemical; conditions: buffer
[10] = Plasma protein binding in rat by LC-MS/MS analysis; assay type: ADME, cell-free; conditions: read-out: PPB (converted)
[11] = AUC in Sprague-Dawley rat at 10 mg/kg, po measured upto 24 hrs by LC-MS/MS analysis; assay type: ADME, organism-based; design: time < 24 hrs, dose 10 mg/kg, route po; conditions: in vivo
[12] = Clearance in Sprague-Dawley rat at 10 mg/kg, po measured upto 24 hrs by LC-MS/MS analysis; assay type: ADME, organism-based; conditions: in vivo
[13] = MRT in Sprague-Dawley rat at 10 mg/kg, po measured upto 24 hrs by LC-MS/MS analysis; assay type: ADME, organism-based; conditions: in vivo
[14] = Cmax in Sprague-Dawley rat at 10 mg/kg, po measured upto 24 hrs by LC-MS/MS analysis; assay type: ADME, organism-based; design: dose 10 mg/kg, time < 24 hrs, route po; conditions: in vivo
[15] = Tmax in Sprague-Dawley rat at 10 mg/kg, po measured upto 24 hrs by LC-MS/MS analysis; assay type: ADME, organism-based; conditions: in vivo
[16] = Half-life in Sprague-Dawley rat at 10 mg/kg, po measured upto 24 hrs by LC-MS/MS analysis; assay type: ADME, organism-based; conditions: in vivo
[17] = Oral bioavailability in Sprague-Dawley rat at 10 mg/kg measured upto 24 hrs by LC-MS/MS analysis; assay type: ADME, organism-based; conditions: in vivo

| SMILES | EC50 (Apelin receptor [1]) [nM] | EC50 (Apelin receptor [2]) [nM] | remaining at 0.5 h, 1 µM [3] [%] | further results |
| --- | --- | --- | --- | --- |
| O=C(C[C@H](CCN1CCCCC1)NC(=O)c1cc(-c2cscn2)n(C2CCCC2)n1)NC1CCC1 | > 10000 | – | – | – |
| O=C(C[C@H](CCN1CCCCC1)NC(=O)c1cc(-c2ccsc2C(F)(F)F)n(C2CCCC2)n1)NC1CCC1 | 538 | – | – | – |
| CN(C(=O)[C@H](CC(=O)NC1CCC1)NC(=O)c1cc(-c2ccccc2C(F)(F)F)n(C2CCCC2)n1)C1CCCCC1 | 879 | – | – | – |
| O=C(C[C@H](CCN1CCCCC1)NC(=O)c1cc(-c2ccccc2C2CC2)n(C2CCCC2)n1)NC1CCC1 | – | 6.4 | 70.1 | – |
| CN(C[C@H](CC(=O)NC1CCC1)NC(=O)c1cc(-c2ccccc2C(F)(F)F)n(C2CCCC2)n1)C1CCCCC1 | 5120 | – | – | – |
| COc1cccc(F)c1-c1cc(C(=O)N[C@@H](CCN2CCCCC2)CC(=O)NC2CCC2)nn1C1CCCC1 | – | 5.6 | 74.3 | – |
| CCc1ccccc1-c1cc(C(=O)N[C@@H](CCN2CCCCC2)CC(=O)NC2CCC2)nn1C1CCCC1 | – | 7 | 76.5 | – |
| CN(CC[C@@H](CC(=O)NC1CCC1)NC(=O)c1cc(-c2ccccc2C(F)(F)F)n(C2CCCC2)n1)C1CCCCC1 | 14 | 2 | 65.2 | Papp B→A [4]: 68 ×10⁻⁶ cm/s |
| C#Cc1ccccc1-c1cc(C(=O)N[C@@H](CCN2CCCCC2)CC(=O)NC2CCC2)nn1C1CCCC1 | 267 | – | – | – |
| CC(C)CN(C)CC[C@@H](CC(=O)NC1CCC1)NC(=O)c1cc(-c2ccccc2C(F)(F)F)n(C2CCCC2)n1 | – | 0.35 | 63.6 | – |
| O=C(C[C@H](CCN1CCCCC1)NC(=O)c1cc(-c2cccc[n+]2[O-])n(C2CCCC2)n1)NC1CCC1 | > 10000 | – | – | – |

More lines, main results first:

| EC50 (Apelin receptor [1]) [nM] | EC50 (Apelin receptor [2]) [nM] | remaining at 0.5 h, 1 µM [3] [%] | SMILES | further results |
| --- | --- | --- | --- | --- |
| – | 2.4 | 74.6 | O=C(C[C@H](CCN1CCCCC1)NC(=O)c1cc(-c2ccccc2C(F)(F)F)n(C2CCCC2)n1)NC1CCC1 | Papp B→A [4]: 52 ×10⁻⁶ cm/s; efflux ratio [5]: 304 |
| 162 | – | – | O=C(C[C@H](CCN1CC2(COC2)C1)NC(=O)c1cc(-c2ccccc2C(F)(F)F)n(C2CCCC2)n1)NC1CCC1 | – |
| – | 54 | – | Cc1cnn(CC[C@@H](CC(=O)NC2CCC2)NC(=O)c2cc(-c3ccccc3C(F)(F)F)n(C3CCCC3)n2)c1 | Papp A→B [6]: 8 ×10⁻⁶ cm/s; Papp B→A [4]: 24 ×10⁻⁶ cm/s; efflux ratio [5]: 3 |
| – | 4.3 | 77.1 | CC(F)(F)c1ccccc1-c1cc(C(=O)N[C@@H](CCN2CCCCC2)CC(=O)NC2CCC2)nn1C1CCCC1 | – |
| 24 | 6.5 | – | O=C(C[C@H](CCN1CCCC(F)(F)C1)NC(=O)c1cc(-c2ccccc2C(F)(F)F)n(C2CCCC2)n1)Nc1nnn[nH]1 | Papp A→B [6]: 8 ×10⁻⁶ cm/s; Papp B→A [4]: 8 ×10⁻⁶ cm/s; efflux ratio [5]: 1; EC50 (Apelin receptor [7]): 463 nM; Emax [8]: 80%; solubility [9]: > 1000 µM; fraction unbound [10]: < 0.006; AUC at 24 h [11]: 5850 ng·h/mL; CL/F [12]: 28 mL/min/kg; MRT [13]: 5.1 h; Cmax [14]: 1580 ng/mL; Tmax [15]: 0.4 h; half-life [16]: 4.1 h; bioavailability [17]: > 95% |
| 103 | 15 | – | O=C(C[C@H](CCc1ccc(F)cc1)NC(=O)c1cc(-c2ccccc2C(F)(F)F)n(C2CCCC2)n1)NC1CCC1 | – |
| 834 | – | – | CN(C)CC[C@@H](CC(=O)NC1CCC1)NC(=O)c1cc(-c2ccccc2C(F)(F)F)n(C2CCCC2)n1 | – |
| – | 3.4 | 38.7 | O=C(C[C@H](CCN1CCCC(F)(F)C1)NC(=O)c1cc(-c2ccccc2C(F)(F)F)n(C2CCCC2)n1)NC1CCC1 | Papp A→B [6]: 33 ×10⁻⁶ cm/s; Papp B→A [4]: 36 ×10⁻⁶ cm/s; efflux ratio [5]: 1; EC50 (Apelin receptor [7]): 5.4 nM; Emax [8]: 107%; solubility [9]: 4 µM (≈ 2.38 µg/mL); fraction unbound [10]: 0.005 |
| 1210 | – | – | O=C(C[C@@H](CN1CCC(F)(F)C1)NC(=O)c1cc(-c2ccccc2C(F)(F)F)n(C2CCCC2)n1)NC1CCC1 | – |
| 910 | – | – | O=C(C[C@@H](CN1CCCC(F)(F)C1)NC(=O)c1cc(-c2ccccc2C(F)(F)F)n(C2CCCC2)n1)NC1CCC1 | – |
| 69 | 28 | – | O=C(C[C@H](CCN1CCOCC1)NC(=O)c1cc(-c2ccccc2C(F)(F)F)n(C2CCCC2)n1)NC1CCC1 | – |
| 31 | 6 | 6.04 | O=C(C[C@H](CCN1CCCC[C@H]1C(F)(F)F)NC(=O)c1cc(-c2ccccc2C(F)(F)F)n(C2CCCC2)n1)NC1CCC1 | – |
